Test results as given in publication PMC6691788, “Design and synthesis of phthalazine-based compounds as potent anticancer agents with potential antiangiogenic activity via VEGFR-2 inhibition” (Journal of Enzyme Inhibition and Medicinal Chemistry, 2019).

Assays:
Test in all cases: NCI 60 cell panel SRB screen
Type in all cases: cell-based
[1] = test system: MOLT-4; conditions: Homo sapiens
[2] = test system: UACC-257; conditions: Homo sapiens
[3] = test system: SK-OV-3; conditions: Homo sapiens
[4] = test system: A549/ATCC; conditions: Homo sapiens
[5] = test system: A498; conditions: Homo sapiens
[6] = test system: HCT-116; conditions: Homo sapiens
[7] = test system: HCT-15; conditions: Homo sapiens
[8] = test system: U251; conditions: Homo sapiens, U-251
[9] = test system: K-562; conditions: Homo sapiens, K562
[10] = test system: SF-268; conditions: Homo sapiens
[11] = test system: COLO 205; conditions: Homo sapiens
[12] = test system: ACHN; conditions: Homo sapiens
[13] = test system: NCI/ADR-RES; conditions: Homo sapiens
[14] = test system: SF-295; conditions: Homo sapiens
[15] = test system: NCI-H23; conditions: Homo sapiens
[16] = test system: OVCAR-5; conditions: Homo sapiens
[17] = test system: SK-MEL-28; conditions: Homo sapiens
[18] = test system: MDA-MB-468; conditions: Homo sapiens
Procedure: The human tumor cell lines of the cancer-screening panel were grown in RPMI 1640 medium containing 5% fetal bovine serum and […] L-glutamine. For a typical screening experiment, cells are inoculated into 96 well microtiter plates in 100 ml at plating densities ranging from 5000 to 40,000 cells/well depending on the doubling time of individual cell lines. After cell inoculation, the microtiter plates are incubated at 37 °C, 5% CO2, 95% air and 100%
relative humidity for 24 h prior to addition of experimental drugs. After 24 h, two plates of each cell line are fixed in situ with TCA, to represent a measurement of the cell population for each cell line at the time of drug addition (Tz). Experimental drugs are dissolved in dimethyl sulfoxide at 400-fold the desired final maximum test concentration and stored frozen prior to use. At the time of drug addition, an aliquot of frozen concentrate is thawed and diluted to twice the desired final maximum test concentration with complete medium containing […] Gentamicin. Additional four, 10-fold or ½log serial dilutions are made to provide a total of five drug concentrations plus control. Aliquots of […] of these different drug dilutions are added to the appropriate microtiter wells already containing 100 ml of medium, resulting in the required final drug concentrations. Following drug addition, the plates are incubated for an additional 48 h at 37 °C, 5% CO2, 95% air, and 100% relative humidity. For adherent cells, the assay is terminated by the addition of cold TCA. Cells are fixed in situ by the gentle addition of […] of cold 50% (w/v) TCA (final concentration,10% TCA) and incubated for 60 min at 4 °C. The supernatant is discarded, and the plates are washed five times with tap water and air dried. Sulforhodamine B (SRB) solution (100 ml) at 0.4% (w/v) in 1% acetic acid is added to each well, and plates are incubated for 10 min at room temperature. After staining, unbound dye is removed by washing five times with 1% acetic acid and the plates are air dried. Bound stain is subsequently dissolved with 10 μM trizma base, and the absorbance is read on an automated plate reader at a wavelength of 515 nm. For suspension cells, the methodology is the same except that the assay is terminated by fixing settled cells at the bottom of the wells by gently adding […] of 80% TCA (final concentration, 16% TCA).
Using the seven absorbance measurements [time zero, (Tz), control growth, (C), and test growth in the presence of drug at the five concentration levels (Ti)], the percentage growth is calculated at each of the drug concentrations levels. Percentage growth inhibition is calculated as: [(Ti -Tz)/(C - Tz)] x 100 for concentrations for which Ti>/ ¼ Tz and [(Ti -Tz) / Tz] x100 for concentrations for which Ti <Tz.
Three dose response parameters are calculated for each experimental agent. Growth inhibition of 50% (GI50) is calculated from [(Ti -Tz)/(C - Tz)] x 100 =50, which is the drug concentration resulting in a 50% reduction in the net protein increase (as measured by SRB staining) in control cells during the drug incubation. The drug concentration resulting in total growth inhibition (TGI) is calculated from Ti ¼ Tz. The LC50 (concentration of drug resulting in a 50% reduction in the measured protein at the end of the drug treatment as compared to that at the beginning) indicating a net loss of cells following treatment is calculated from [(Ti - Tz) / Tz] x100 = -50. Values are calculated for each of these three parameters if the level of activity is reached; however, if the effect is not reached or is exceeded, the value for that parameter is expressed as greater or less than the maximum or minimum concentration tested.

[19] = test system: HOP-62; conditions: Homo sapiens
[20] = single dose 10 μM, read-out: percent cell growth promotion
[21] = 5 log dose, 48 h, read-out: LC50 (the source's name)

In the case of `O=C(Nc1ccc(Cl)cc1)Nc1ccc(Nc2nncc3ccccc23)cc1` [Compound 6b, 1–(4-Chlorophenyl)-3–(4-(phthalazin-1-ylamino)phenyl)urea], the GI50 ([1]; MOLT-4, 5 log dose) is reported as 2.09 µM, the IC (TGI) ([1]; MOLT-4, 5 log dose) is reported as 6.36 µM and the CC50 ([1]; MOLT-4, 5 log dose, 48 h, read-out: LC50 (the source's name)) is reported as over 100 µM. For the same compound, the activity at 10 µM ([1]; MOLT-4, single dose 10 μM, read-out: percent cell growth promotion) was -1.61%, the GI50 ([2]; UACC-257) was 3.41 µM and the IC (TGI) ([2]; UACC-257, read-out: TGI) was 10.8 µM. The activity at 10 µM ([2]; UACC-257, read-out: percent cell growth promotion) was 15.3%, the CC50 ([2]; UACC-257, 5 log dose, 48 h, read-out: LC50 (the source's name)) was 33.5 µM and the GI50 ([3]; SK-OV-3, 5 log dose) was 3.05 µM. It also gave an IC (TGI) ([3]; SK-OV-3, 5 log dose) of 17.7 µM, a CC50 ([3]; SK-OV-3, 5 log dose, 48 h, read-out: LC50 (the source's name)) of over 100 µM and an activity at 10 µM ([3]; SK-OV-3, single dose 10 μM, read-out: percent cell growth promotion) of 38.2%. For the same compound, the GI50 ([4]; 5 log dose) was 3.03 µM, the IC (TGI) ([4]; 5 log dose) was 19.3 µM and the LC50 (concentration killing 50% of cells) ([4]; 5 log dose, 48 h) was over 100 µM. The activity at 10 µM [4, 20] was 20.1%, the GI50 ([5]; A498, 5 log dose) was 3.79 µM and the IC (TGI) ([5]; A498, 5 log dose) was 18.8 µM. For the same compound, the CC50 ([5]; A498, 5 log dose, 48 h, read-out: LC50 (the source's name)) was over 100 µM, the activity at 10 µM ([5]; A498, single dose 10 μM, read-out: percent cell growth promotion) was 24.5% and the GI50 ([6]; HCT-116, 5 log dose) was 2.46 µM. It also gave an IC (TGI) ([6]; HCT-116, 5 log dose) of 12 µM, an LC50 (lethal concentration 50%) ([6]; HCT-116, 5 log dose, 48 h) of 37.4 µM and an activity at 10 µM ([6]; HCT-116, single dose 10 μM, read-out: percent cell growth promotion) of 15.2%. It also gave a GI50 ([7]; HCT-15, 5 log dose) of 1.59 µM, an IC (TGI) ([7]; HCT-15, 5 log dose) of 11.8 µM and a CC50 ([7]; HCT-15, 5 log dose, 48 h, read-out: LC50 (the source's name)) of 71.5 µM. The activity at 10 µM ([7]; HCT-15, single dose 10 μM, read-out: percent cell growth promotion) was 18.3%, the GI50 ([8]; U251, 5 log dose) was 2.86 µM and the IC (TGI) ([8]; U251, 5 log dose) was 10.3 µM. The CC50 ([8]; U251, 5 log dose, 48 h, read-out: LC50 (the source's name)) was 37.2 µM, the activity at 10 µM ([8]; U251, single dose 10 μM, read-out: percent cell growth promotion) was 18.3% and the GI50 ([9]; K-562, 5 log dose) was 1.68 µM. For the same compound, the IC (TGI) ([9]; K-562, 5 log dose) was 26.4 µM, the CC50 ([9]; K-562, 5 log dose, 48 h, read-out: LC50 (the source's name)) was over 100 µM and the activity at 10 µM ([9]; K-562, single dose 10 μM, read-out: percent cell growth promotion) was 9.49%. It also gave a GI50 ([10]; SF-268, 5 log dose) of 3.19 µM, an IC (TGI) ([10]; SF-268, 5 log dose) of 28.1 µM and a CC50 ([10]; SF-268, 5 log dose, 48 h, read-out: LC50 (the source's name)) of over 100 µM. For the same compound, the activity at 10 µM ([10]; SF-268, single dose 10 μM, read-out: percent cell growth promotion) was 42.4%, the GI50 ([11]; COLO 205, 5 log dose) was 2.77 µM and the IC (TGI) ([11]; COLO 205, 5 log dose) was 9.58 µM. It also gave a CC50 ([11]; COLO 205, 5 log dose, 48 h, read-out: LC50 (the source's name)) of 34.6 µM, an activity at 10 µM ([11]; COLO 205, single dose 10 μM, read-out: percent cell growth promotion) of 18.6% and a GI50 ([12]; 5 log dose) of 1.12 µM. The IC (TGI) ([12]; 5 log dose) was 7.12 µM, the CC50 [12, 21] was over 100 µM and the activity at 10 µM [12, 20] was 22.4%. For the same compound, the GI50 ([13]; 5 log dose) was 2.79 µM, the IC (TGI) ([13]; 5 log dose) was 26.3 µM and the CC50 [13, 21] was over 100 µM. For the same compound, the activity at 10 µM [13, 20] was 36.2%, the GI50 ([14]; SF-295, 5 log dose) was 2.84 µM and the IC (TGI) ([14]; SF-295, 5 log dose) was 11 µM. It also gave a CC50 ([14]; SF-295, 5 log dose, 48 h, read-out: LC50 (the source's name)) of 45.8 µM, an activity at 10 µM ([14]; SF-295, single dose 10 μM, read-out: percent cell growth promotion) of 17.8% and a GI50 ([15]; NCI-H23, 5 log dose) of 3.07 µM. For the same compound, the IC (TGI) ([15]; NCI-H23, 5 log dose) was 14.4 µM, the CC50 ([15]; NCI-H23, 5 log dose, 48 h, read-out: LC50 (the source's name)) was 71.8 µM and the activity at 10 µM ([15]; NCI-H23, single dose 10 μM, read-out: percent cell growth promotion) was 12.5%. The GI50 ([16]; OVCAR-5, 5 log dose) was 4.15 µM, the IC (TGI) ([16]; OVCAR-5, 5 log dose) was 34.3 µM and the CC50 ([16]; OVCAR-5, 5 log dose, 48 h, read-out: LC50 (the source's name)) was over 100 µM. The activity at 10 µM ([16]; OVCAR-5, single dose 10 μM, read-out: percent cell growth promotion) was 85.6%, the GI50 ([17]; SK-MEL-28) was 3.04 µM and the IC (TGI) ([17]; SK-MEL-28, read-out: TGI) was 12.8 µM. For the same compound, the activity at 10 µM ([17]; SK-MEL-28, read-out: percent cell growth promotion) was 44.1%, the CC50 ([17]; SK-MEL-28, 5 log dose, 48 h, read-out: LC50 (the source's name)) was 51.5 µM and the activity at 10 µM ([18]; MDA-MB-468, MDA-MBA-468, single dose 10 μM, read-out: percent cell growth promotion) was 0.17%. The GI50 ([18]; MDA-MB-468, 5 log dose) was 2.57 µM, the IC (TGI) ([18]; MDA-MB-468, 5 log dose) was 9.47 µM and the CC50 ([18]; MDA-MB-468, 5 log dose, 48 h, read-out: LC50 (the source's name)) was over 100 µM. For the same compound, the GI50 ([19]; HOP-62, 5 log dose) was 3 µM, the IC (TGI) ([19]; HOP-62, 5 log dose) was 14.9 µM and the CC50 ([19]; HOP-62, 5 log dose, 48 h, read-out: LC50 (the source's name)) was 74.9 µM. The activity at 10 µM ([19]; HOP-62, single dose 10 μM, read-out: percent cell growth promotion) was 20.6%.
